A short description of this data set: Suitability of BHT as antioxidant for a solution of diclofenac and thiocolchicoside (solubility/precipitation on storage). Type of data set: physicochemical. Particulars: ordinary storage conditions.

With `Cc1cc(C(C)(C)C)c(O)c(C(C)(C)C)c1` [BHT, 2,6-bis(1,1-dimethylethyl)-4-methylphenol], the “Solubility / precipitation as antioxidant in a solution of diclofenac and thiocolchicoside” value is “poor solubility and precipitation”.

The record behind these values is patent publication US9427446B2, “Stable injectable composition containing diclofenac and thiocolchicoside” (EPIFARMA S.R.L., priority 2012, dated 2016).
